Source: patent US6468983B2, “RNase L activators and antisense oligonucleotides effective to treat telomerase-expressing malignancies” (The Cleveland Clinic Foundation, priority 1997, dated 2002)

Legend:
[1] = test system: U373 cells; assay: Viable cell count (trypan blue), daily oligonucleotide plus lipofectamine; assay type: cell-based, human; conditions: U373, 0.5 micromolar daily plus lipofectamine; for cell viability / viable cell numbers reduced by: 7 days
Procedure: (§1) Cells (10,000/well) were seeded on 96 well tissue culture dishes, and treated every 24 hours. A 10× concentrated mixture of oligonucleotides plus lipofectamine in water was prepared containing 5 micromolar oligonucleotide and 80 microgram per ml lipofectamine™ (Gibco/BRL) and incubated for 10 min at room temperature. Media was removed from the cells, 10 microliters of the oligonucleotide/lipofectamine mixture was added directly to the cultured cells followed by 90 microliters of media plus serum. The media was changed with oligonucleotide/lipofectamine treatments every 24 h. Cells were passaged when the control cells reached confluency, and viable cells were counted after staining with Trypan Blue (GibcoBRL). The numbers of cells treated only with lipofectamine were used as the control to calculate percentages of cell survival or viability.

[2] = test system: U373-MG cells; assay: Combination with cisplatin in vitro, MTT assay; assay type: cell-based, human
Procedure: (§2) FIG. 17. Effect of combining 2-5A-anti-hTR with cisplatin on malignant glioma U373-MG cells in vitro and in vivo. FIG. 17A Tumor cells were treated with 2-5A-anti-hTR (0.5 μM, every 24 hr) mixed with Lipofectamine (1.0 μl/25 μl DMEM) or cisplatin for three days, and their viability was determined by MTT assay. Values represent the means±S.D. FIG. 17B Tumors from U373-MG cells (1.0×10^6 cells in 0.05 ml serum free DMEM and 0.05 ml matrigel) were established subcutaneously in nude mice. After four or five weeks when the tumors were approximately 60-100 mm^3, spA4-anti-hTR (5 nmol/20 μl sterile distilled water) were administrated directly into the tumors daily for 7 days. Cisplatin (1.0 or 5.0 mg/kg/mice) was administered intraperitoneally on Days 1, 3 and 5. Five Mice were used in each treatment group. Tumor volume was then determined using calipers, and the mean sizes ±S.D. were calculated.
To determine if the anti-malignant glioma cell activity of chemotherapeutic agent, cisplatin, could be enhance with SpA4-anti-hTR, a combination therapy protocol was devised (FIG. 17). The point at which 50% cell death was achieved was using 1 microgram per ml of cisplatin plus 0.5 micromolar of SpA4-anti-hTR; whereas in the absence of SpA4-anti-hTR, >10 micrograms per ml of cisplatin were required to achieve 50% cell death (FIG. 17). […] Furthermore, we determined the effect of combining 2-5A-anti-hTR with cisplatin on U373-MG cells in vitro and in vivo. […] The IC50 of cisplatin was reduced from 10.0 to 1.0 μg/ml by combination of spA4-anti-hTR.

[3] = test system: U373-MG tumors; assay: Combination with cisplatin on subcutaneous tumors in nude mice; assay type: in vivo; conditions: cisplatin 1 or 5 mg/kg i.p. Days 1, 3, 5 combined with spA4-anti-hTR 5 nmol intratumoral daily 7 days, versus cisplatin alone
Procedure: as §2
To determine if the anti-malignant glioma cell activity of chemotherapeutic agent, cisplatin, could be enhance with SpA4-anti-hTR, a combination therapy protocol was devised (FIG. 17). […] Furthermore, we determined the effect of combining 2-5A-anti-hTR with cisplatin on U373-MG cells in vitro and in vivo. […]

[4] = test system: renal cell carcinoma cell line, RCC; assay: Viable cell count, daily oligonucleotide plus lipofectamine; assay type: cell-based, human; conditions: 0.5 micromolar daily plus lipofectamine, 3 days
Procedure: as §1
Similarly, the viability of the breast cancer cell line, MDA468, was reduced by 64% by SpA4-anti-hTR, while the control oligonucleotides reduced cell viability by <20% (FIG. 6). Viability of the human melanoma cell line, A375, was reduced by 43% in three days by SpA4-anti-hTR, while the control oligonucleotides had no effect (FIG. 7). […] Viability of a third human melanoma cell line, SK-MEL-5, was reduced by 43% by SpA4-anti-hTR, with minimal effects by the control oligonucleotides (FIG. 7). Two prostate tumor cells lines, PC3 and DU145, were suppressed by SpA4-anti-hTR treatments by 45% and 60%, respectively (FIGS. 6 and 10). […] The viability of the malignant glioma cell line, U373, was reduced by about 60% in 3 days, with intermediate effects by the control oligonucleotides (FIG. 6). Therefore, the proliferation and survival of every tumor cell type tested was inhibited by SpA4-anti-hTR. […] In contrast, there was no apoptosis detected in the control cells treated with lipofectamine without oligonucleotide (FIG. 12 upper panel).

[5] = test system: telomerase RNA (hTR); assay: RT-PCR for telomerase RNA in oligonucleotide-treated U251-MG cells; assay type: cell-based, human; conditions: oligonucleotide 5 μM, 5 hours treatment
Procedure: Chimeric oligonucleotides were synthesised on solid supports and purified as described previously (Torrence et al 1993; Lesiak et al 1993; Xiao et al 1994, 1996; Cirino et al 1997). Tumor cells were seeded at 3×10^5 cells/well (3 ml) in 6-well plates and incubated overnight at 37° C. Cells were then treated with oligonucleotides (5 μM). Five hours later total RNA was isolated by using Trizol solution (GIBCO BRL, Grand Island, N.Y.). Expression of telomerase RNA was determined with RT-PCR. The RNA was reverse transcribed into complementary DNA (cDNA) with random oligos used as a primer, and then the cDNA was diluted three times with buffer 10×PCR buffer (Perkin-Elmer, Norwalk, Conn.) at a final concentration of 1:4. The DNA at each dilution was amplified using primers to antisense and sense sequences on opposite sides of the human telomerase RNA sequence, 5′-[…]-3′ (SEQ ID NO:4) and 5′[…]-3′ […], respectively, or to the GAPDH coding sequence, 5′-[…]-3′ […] and 5′[…]-3′ (SEQ ID NO:7), respectively, producing DNA fragments of 400 bp for telomerase cDNA and 508 bp for the GAPDH cDNA, respectively. The PCR went for 30 cycles (94° C., 1 min; 55° C., 1 min; 72° C., 2 min) for telomerase and 30 cycles (94° C., 1 min; 60° C., 1 min; 74° C., 3 min) for GAPDH. The PCR products were analyzed by 1.2% agarose gel electrophoresis and ethidium bromide staining.
Aliquots of U251-MG cells were treated with the “active” oligonucleotide and the two controls for 5 hours. RNA was then prepared from these cells and subjected to RT-PCR to detect telomerase RNA. […] In contrast, telomerase RNA (hTR) was present in cells treated with the control oligonucleotides; spA2-anti-hTR and spA4-anti-(M6)hTR. Thus, hTR could be selectively destroyed in U251-MG cells. Since the RT-PCR assay is not quantitative, it was not possible to assess whether treatment with the spA2-anti-hTR , which has the fully complementary target sequence, had any antisense effect by itself (see below). […]

[6] = test system: U251-MG cells; assay: Cell viability assay, trypan blue dye exclusion, oligonucleotide in water every 12 hr; assay type: cell-based, human; conditions: 5 micromolar every 12 hr; for cell death / effect on viability (in words): 14 days
Procedure: The cytotoxic effect of 2-5A activator antisense complexes on tumor cells was determined using the trypan blue dye exclusion assay. Tumor cells were seeded at 10^4 cells/well (0.1 ml) in 96-well flat-bottomed plates and incubated overnight at 37° C. Then, oligonucleotides (5 micromolar) in water were added into cells every 12 hr. On successive days the cells were harvested and 25% of the total was examined microscopically to determine the percentage of viable cells, another 25% was replated to continue treatment and the remaining 50% were used for the TRAP assay.
Knowing that hTR could be inactivated by the 2-5A antisense treatment, U251-MG cells were treated every 12 hours over a 14 day period with the same three oligonucleotides. 79% of the cells treated with spA4-anti-hTR were killed over the 14 day period with a significant (50%) reduction in cell viability after only 5 days. […] These experiments have since been repeated on a number of occasions with U251-MG cells to test new batches of oligonucleotides, always with the same results. […] Thus, after 14 days from the initial treatment with spA4-anti-hTR, the viability of U251-MG cells, as shown by Trypan-blue exclusion assays, was suppressed in all cases.

[7] = test system: U373-MG tumors; assay: Subcutaneous xenografts in nude mice, intratumoral oligonucleotide; assay type: in vivo, Balb/c nude mice; conditions: 5 nmol intratumoral daily for 7 days
Procedure: (§3) U251-MG and U373 MG tumor cells (1.0×10^6 cells in 0.1 ml serum free DMEM and 0.1 ml Matrigel) were injected subcutaneously into the right flank of 8-12 week-old female Balb/c nude mice (5 mice for each treatment group). Tumor growth was monitored using calipers every 2- or 3-days. Tumor volume (V) was calculated as (L×W^2)/2, where L=length (mm) and W=width (mm). Oligonucleotide treatment was initiated when the tumors reached an average tumor volume of 60-100 mm^3 (about four to five weeks after injection). Oligonucleotides (5 nmol/20 microliter sterile distilled water) were administered by injecting them directly into the tumor every 24 hr for 7-14 days. Some experiments included lipofectamine at 1 microliter per 20 microliters final volume of oligonucleotide solution. Mice were sacrificed by cervical dislocation the day after the final injection and the tumors were removed, frozen rapidly and 12 μm sections were prepared for histological studies. During all of these experiments, which were approved by the CCF Research Programs Committee, the animals were housed and handled in accordance with the National Institutes of Health guidelines.

[8] = test system: U251-MG tumors; assay: as above; assay type: in vivo, Balb/c nude mice
Procedure: as §3

[9] = test system: U251-MG tumors; assay: In situ end-labeling (TUNEL) of DNA in subcutaneous xenografts; assay type: in vivo, nude mice; conditions: 5 nmol every day for 7 days
Excerpt: FIG. 14. In situ end-labeling of DNA in subcutaneous xenografts of nude mice. After treatment with oligonucleotides (5 nmol, every day) for 7 days, the mice were sacrificed and the subcutaneous mass was removed, frozen, and sectioned on a cryostat. The tumor specimens from U251-MG cells were counterstained by hematoxylin and eosin following the TUNEL technique. Arrows show representatives of tumor cells positive for DNA fragmentation (×400). (above) spA4-anti-(M6)hTR, 7 Day; (below) spA4-anti-hTR, 7 Day.
To further determine whether treatment with oligonucleotides induced apoptosis, tumor cells and tissues were stained by the terminal deoxynucleotidyl transferase (TdT)-mediated DUTP nick end labeling (TUNEL) technique using Apo-Tag kit (peroxidase conjugated) (Oncor Inc., Gaithersburg, Md.). The staining of apoptotic cells was done on U373MG cells. Oligonucleotides with lipofectamine was added to the cells every day. The final concentrations were 0.5 micromolar and 8 microgram/ml for oligo and lipofectamine, respectively. […]
U251-MG and U373 MG tumor cells (1.0×10^6 cells in 0.1 ml serum free DMEM and 0.1 ml Matrigel) were injected subcutaneously into the right flank of 8-12 week-old female Balb/c nude mice (5 mice for each treatment group). Tumor growth was monitored using calipers every 2- or 3-days. Tumor volume (V) was calculated as (L×W^2)/2, where L=length (mm) and W=width (mm). […]

Molecule | cell viability / viable cell numbers reduced by [1] | effect on growth/viability (in words) [4] | telomerase RNA (hTR) detected by RT-PCR [5] | cell death / effect on viability (in words) [6] | tumor response (in words) ([8]; 14 days treatment) | further results
Sp5′A(2′p5′A)3-Bu2-5′GCC CGG GGT GCA AAT GCA C3′-3′T5′ [spA4-anti-(M3)hTR] | 76% | – | – | – | – | –
N.N.[Cl][Pt][Cl] [cisplatin] | – | – | – | – | – | IC50 of cisplatin ([2]; U373-MG, in combination with spA4-anti-hTR 0.5 μM every 24 hr plus Lipofectamine, three days, MTT): 1.0 µg/mL; cisplatin required to achieve 50% cell death ([2]; in the absence of SpA4-anti-hTR): > 10 micrograms per ml; cisplatin at which 50% cell death was achieved ([2]; plus 0.5 micromolar of SpA4-anti-hTR): 1 microgram per ml; cytotoxic effect of cisplatin on subcutaneous tumors (in words) [3]: significantly enhanced
Sp5′A2′p(5′A2p)3-[(Bu)p]25′ GCC CGC GGT GCT AAT GCT C3′-3′T5′ (antisense GCCCGCGGTGCTAATGCTC; 5' tetrameric 2-5A via butanediol linkers, 3'-3' T cap, chemistry not fully specified) [spA4-anti-(M6)hTR, control with functional tetrameric 2-5A and six mismatched nucleotides in the antisense cassette] | 43% | no reduction in viability | present | little, if any, cell death | lack of response | tumor growth (in words) [7]: continued to increase in size; tumor growth (in words) ([8]; 5 nmol intratumoral daily for 7 days): continued to increase in size; average net weight of the tumors after treatment ([8]; 14 days treatment): 92.0 ± 14.7 mg; increase in tumor size during the treatment period ([8]; intratumoral daily for 14 days, relative to starting size): 87%; apoptotic cells observed in tumors (TUNEL) [9]: a few apoptotic cells
Sp5′A(2′p5′A)11-Bu2-5′GCG CGG GGA GCA AAA GCA C3′-3′T5′ (antisense GCGCGGGGAGCAAAAGCAC; 5' 2-5A (A12) via butanediol linkers, 3'-3' T cap, chemistry not fully specified) [spA12-anti-hTR, compound containing twelve 2′,5′-linked adenylyl residues] | – | – | – | – | – | anti-cellular activity compared with spA4-anti-hTR (in words) ([1]; after 7 days): considerably more anti-cellular activity
Sp5′A2′p5′A2p-[(Bu)p]2-5′GCG CGG GGA GCA AAA GCA C3′-3′T5′ (antisense GCGCGGGGAGCAAAAGCAC; 5' 2-5A dimer via butanediol linkers, 3'-3' T cap, chemistry not fully specified) [spA2-anti-hTR, control with only two 2′,5′-linked adenylyl residues, defective 2-5A] | 42% | no reduction in viability | present | mild antisense effect | lack of response | cells remained viable ([6]; over the 14 day treatment period): 80%
